From US20070255062A1, “Benzoyl Amino Pyridyl Carboxylic Acid Derivatives Useful as Glucokinase (Glk) Activators” (priority 2003, published 2007)

Key:
glucokinase (GLK) = target: T1, glucokinase (GLK) (Homo sapiens, UniProt P35557); assay: Enzymatic activity of GLK (G-6-P dehydrogenase, NADP/NADPH coupled assay), activation by compounds; type: biochemical; conditions: read-out: EC50 (activating activity for glucokinase)
T1 construct: 6-His (N); made in house; host or cells: E. coli BL21 (vector pTB375NBSE)
T1 sequence (P35557 1-466 isoform P35557-2): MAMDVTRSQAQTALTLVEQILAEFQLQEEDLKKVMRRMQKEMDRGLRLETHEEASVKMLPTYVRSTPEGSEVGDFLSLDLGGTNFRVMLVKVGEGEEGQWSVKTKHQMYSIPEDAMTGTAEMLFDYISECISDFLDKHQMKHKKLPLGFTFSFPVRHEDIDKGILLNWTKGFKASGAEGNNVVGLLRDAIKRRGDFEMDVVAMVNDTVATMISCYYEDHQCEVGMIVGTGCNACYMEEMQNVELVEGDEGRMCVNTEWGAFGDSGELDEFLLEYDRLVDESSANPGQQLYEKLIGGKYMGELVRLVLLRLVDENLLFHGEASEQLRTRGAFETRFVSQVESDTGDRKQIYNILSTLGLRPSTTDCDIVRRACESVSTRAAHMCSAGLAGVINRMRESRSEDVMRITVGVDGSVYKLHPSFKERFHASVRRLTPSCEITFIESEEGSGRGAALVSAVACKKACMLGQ
Method: (1) Enzymatic activity of GLK may be measured by incubating GLK, ATP and glucose. The rate of product formation may be determined by coupling the assay to a G-6-P dehydrogenase, NADP/NADPH system and measuring the linear increase in optical density at 340 nm (atschinsky et al 1993). Activation of GLK by compounds can be assessed using this assay in the presence or absence of GLKRP (GLK regulatory protein) as described in Brocklehurst et al (Diabetes 2004, 53, 535-541).
GLK was expressed from the vector pTB375NBSE in E.coli BL21 cells, producing a recombinant protein containing a 6-His tag immediately adjacent to the N-terminal methionine. Alternatively, another suitable vector is pET21(+)DNA, Novagen, Cat number 697703. The 6-His tag was used to allow purification of the recombinant protein on a column packed with nickel-nitrilotriacetic acid agarose purchased from Qiagen (cat no 30250).

[1] = Plasma protein binding by equilibrium dialysis; type: in vitro ADME; conditions: rat, 18 hours at 37° C., plasma vs isotonic phosphate buffer pH 7.4, read-out: % free in plasma
Method: Measurements of Plasma Protein Binding of Compounds
The plasma protein binding of compounds was measured using the equilibrium dialysis technique (W. Lindner et al, J. Chromatography, 1996, 677, 1-28). Compound was dialysed at a concentration of 20 μM for 18 hours at 37° C. with plasma and isotonic phosphate buffer pH 7.4 (1 ml of each in the dialysis cell). A Spectrum® 20-cell equilibrium dialyser was used together with Teflon, semi-micro dialysis cells and Spectra/Por®2 membrane discs with a molecular weight cut off 12-14000 Dalton, 47 mm (supplied by PerBio Science UK Ltd, Tattenhall, Cheshire). Plasma and buffer samples are removed following dialysis and analysed using HPLCUV/MS (high performance liquid chromatography with UV and mass spec detection) to give the % free level in plasma.

[2] = Plasma levels following oral administration to rats; type: in vivo; conditions: rat, oral gavage, normalised dose of 1 mg of compound per kilogram of rat body weight
Method: Measurement of Plasma Levels and Plasma Protein Binding Following Oral Administration to Rats
Planetary Milled compounds [15 mins, 500 rpm, 5 Zirconium Balls, in a Puluerisette 7 Mill (Glen Creston Ltd, Stanmore, Middlesex, UK)] were suspended in 0.5% HPMC Tween and dosed to High Fat Fed (Research Diets, D12451, ad lib feeding 14 days) Female Alderley Park Zucker or Alderley Park Wistar rats at rate of 5 mls/kg, at doses between 0.3 and 10 mg/kg by oral gavage.
Samples of plasma were obtained either by conscious blood sampling or terminal blood sampling as follows:
Conscious blood sampling (for compound level or blood chemistry)—Intravenous blood samples were taken from tail vein using 600 μL Starstedt Multivette (EDTA) and 22 G needle at the required time point. […]
The reconstituted samples were then analysed using high performance liquid chromatography with tandem mass spectrometry detection (HPLC-MS-MS)”. […]
The concentration of test samples was determined from the ratio of the peak height of the test sample to the peak height of the internal standard. The concentration of the test sample was calculated with reference to a standard curve relating the ratio to the concentration prepared by using known concentrations of test sample added to samples of rat plasma using (3-isopropoxy-5-benzyoxy-benzoyl)amino pyridine 3-carboxylic acid as an internal standard, treated as described above.

[3] = Estimation of plasma half-life; type: in vivo; conditions: rat, typically determined following intravenous administration, semilogarithmic plot, read-out: t½ (half life in plasma) (converted)
Excerpt: Estimation of Plasma Half-Life
The plasma half-life is the time taken for the concentration of compound in the plasma to decline to half of its original value. This is typically determined following intravenous administration of the test compound, followed by measurement of the compound concentrations in plasma samples as described above. The plasma half-life is estimated from a semilogarithmic plot, plotting the log of the plasma concentration (lnCp) against sample time (t, linear). The apparent first-order elimination rate constant, k, is equal to the slope of the line, and the elimination half-life (t1/2) is […] (Gibaldi, M and Perrier, D, 1975 Pharmacokinetics, Marcel Dekker, New York): [formula]

- EC50 (glucokinase (GLK)): 110 nM
- fraction unbound at 18 h, 20 μM [1]: 0.0076
- half-life [3]: 384 min
SMILES: COC[C@H](C)Oc1cc(Oc2cccc(C)c2)cc(C(=O)Nc2ccc(C(=O)O)cn2)c1 [Example 1, 6-[3-{(1S)-1-methyl-2-methoxy-ethoxy}-5-{3-methylphenoxy}phenylcarbonylamino]pyridine-3-carboxylic acid]
- Peak Blood levels (including both bound and free) [2]: 2.06 µM
